For data set [1], the target named is T1, pDNA-PK ser2056 induction in HCT116 spheroids (Homo sapiens, UniProt P78527).
T1 construct: endogenous in cells; host or cells: HCT116 multicellular tumour spheroids
As to the kind of experiment: Multicellular tumour spheroid + radiation, pDNA-PK inhibition, HCT116. The conditions noted are these: 20 Gy, 20% O2. Format: cell-based. An outline of the steps:
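EC50 (μM) is concentration halving radiation-induced pDNA-PK ser2056, scored by fluorescent immunostaining of cryosections 2 h after 20 Gy. HCT116 tumour spheroids (~0.5 mm, stirred, 20% O2/5% CO2, 37 °C) exposed to serial dilutions from 10 or 5 μM to 3.5 nM starting 1 h before irradiation.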

The nature of data set [2]: Hepatocyte stability assay, mouse hepatocytes. Format: in vitro ADME. The conditions noted are these: for hepatocyte CLint at 1 uM: male, CD-1, mouse, cryopreserved hepatocytes, pH 7.3, 0.7 million cells per mL, 1 uM compound. As for the experimental part: (§1) Cryopreserved mouse hepatocytes were obtained from a pool of 10 or more male CD-1 mice. Cryopreserved human hepatocytes were obtained from a pool of 10 or more donors of mixed gender. Final hepatocyte density was 0.7 million viable cells per mL and test compound concentration was 1 uM with a maximum of 0.01% DMSO. Cryopreserved hepatocytes were thawed, washed, and resuspended in Krebs-Heinslet buffer (pH 7.3). The reaction was initiated by adding the test compound into cell suspension and incubated for 0, […], 1, 1.5, and 2 h, respectively, at 37° C./5% CO2. The reaction was stopped by adding acetonitrile into the incubation mixture. Samples were then mixed, transferred completely to another 96-well plate, and centrifuged. Supernatants were used for HPLC-MS/MS analysis. […] Peak areas corresponding to the test compound were recorded.

Data set [3] is described as follows: Hepatocyte stability assay, human hepatocytes. Format: in vitro ADME. The following applies: for hepatocyte CLint at 1 uM: both sexes, human, cryopreserved hepatocytes, pH 7.3, 0.7 million cells per mL, 1 uM compound. As for the experimental part:
as §1

Data set [4] in a line: Microsomal stability assay, mouse liver microsomes. The conditions noted are these: for microsomal CLint at 0.1 uM: male, CD-1, mouse, liver microsomes, pH 7.4, Microsomal Stability Mouse Clint, 0.1 mg/mL microsomes, 0.1 uM compound.
The mark [5] stands for this setting: Example 7, spheroid, cell line HCT115 [sic], read-out: EC50 (pDNA-PK inhibition, immunohistochemical endpoint).
Setting [6] is: Example 9 Study 2, read-out: Spheroid Cell line: HCT116 Immunohistochemical endpoint pDNA-PK inhibition EC50.

Where two headings read alike, the source gives them in different places.

This note sets out measurements from patent publication US20240246960A1 (adMare Therapeutics Society, priority 2021, published 2024).

On to `CN(C)C(=O)c1cnc(N[C@H]2CC[C@@H](Oc3nc(N4CCOCC4)cc4ncccc34)CC2)nc1` [Compound 53, N,N-dimethyl-2-(((1s,4s)-4-((7-morpholino-1,6-naphthyridin-5-yl)oxy)cyclohexyl)amino)pyrimidine-5-carboxamide], for which the EC50 (in general, the concentration that produces a half-maximal response) in data set [1] (setting [5]) is 500 to 1000 nM. Further, the EC50 in data set [1] (setting [6]) was in the range of 500 to 1000 nM. In data set [2], the “Hepatocyte Stability (mouse) % rem. 120 min” value is reported as “H (% remaining = 75-100%)” and the hepatocyte CLint (as a rule, the rate of metabolic loss divided by the concentration) at 1 uM is less than 8.2 µL/min/1e6 cells. In addition, in data set [3], the “Hepatocyte Stability (human) % rem. 120 min” value is “G (% remaining = 50-75%)” and the hepatocyte CLint at 1 uM is less than 8.2 µL/min/1e6 cells.
Take `c1cnc2cc(N3CCOCC3)nc(O[C@H]3CC[C@@H](Nc4ncnc5ccoc45)CC3)c2c1` [Compound 80a, N-((1s,4s)-4-((7-morpholino-1,6-naphthyridin-5-yl)oxy)cyclohexyl)furo[3,2-d]pyrimidin-4-amine]: the EC50 in data set [1] (setting [5]) lay within 10 to 500 nM. The concentration giving a half-maximal response (EC50) in data set [1] (setting [6]) fell in the range of 10 to 500 nM. In data set [2], the “Hepatocyte Stability (mouse) % rem. 120 min” value was “F (% remaining = 25-50%)” and the hepatocyte CLint at 1 uM is more than 8.2 µL/min/1e6 cells. For the same compound, in data set [3], the “Hepatocyte Stability (human) % rem. 120 min” value is given as “G (% remaining = 50-75%)” and the hepatocyte CLint at 1 uM was less than 8.2 µL/min/1e6 cells.
In the case of `Cc1nc(N[C@H]2CC[C@@H](Oc3nc(N4CCOCC4)cc4ncccc34)CC2)c2occc2n1` [Compound 81, 2-methyl-N-((1s,4s)-4-((7-morpholino-1,6-naphthyridin-5-yl)oxy)cyclohexyl)furo[3,2-d]pyrimidin-4-amine], the EC50 in data set [1] (setting [5]) is 500 to 1000 nM. For the same compound, in data set [1] (setting [6]), the EC50 was 500 to 1000 nM. Also, in data set [2], the “Hepatocyte Stability (mouse) % rem. 120 min” value is “F (% remaining = 25-50%)” and the hepatocyte CLint at 1 uM was more than 8.2 µL/min/1e6 cells. In data set [3], the “Hepatocyte Stability (human) % rem. 120 min” value was “G (% remaining = 50-75%)” and the hepatocyte CLint at 1 uM was less than 8.2 µL/min/1e6 cells.
As to `c1cnc2cc(N3CCOCC3)nc(O[C@H]3CC[C@@H](Nc4ncnc5occc45)CC3)c2c1` [Compound 82, N-((1s,4s)-4-((7-morpholino-1,6-naphthyridin-5-yl)oxy)cyclohexyl)furo[2,3-d]pyrimidin-4-amine], the EC50 in data set [1] (setting [5]) and in data set [1] (setting [6]) was 10 to 500 nM throughout. Moreover, in data set [2], the “Hepatocyte Stability (mouse) % rem. 120 min” value was “E (% remaining = 0-25%)”. Moreover, the hepatocyte CLint at 1 uM in data set [2] and in data set [3] was more than 8.2 µL/min/1e6 cells in each case. In addition, the “Hepatocyte Stability (human) % rem. 120 min” value in data set [3] is listed as “F (% remaining = 25-50%)”.
In the case of `c1cnc2cc(N3CCOCC3)nc(O[C@H]3CC[C@@H](Nc4ncnc5ccsc45)CC3)c2c1` [Compound 83, N-((1s,4s)-4-((7-morpholino-1,6-naphthyridin-5-yl)oxy)cyclohexyl)thieno[3,2-d]pyrimidin-4-amine], the EC50 in data set [1] (setting [5]) fell in the range of 10 to 500 nM. In data set [1] (setting [6]), the EC50 was 10 to 500 nM. Moreover, in data set [2], the “Hepatocyte Stability (mouse) % rem. 120 min” value is given as “F (% remaining = 25-50%)” and the hepatocyte CLint at 1 uM is more than 8.2 µL/min/1e6 cells. Also, in data set [3], the “Hepatocyte Stability (human) % rem. 120 min” value is reported as “E (% remaining = 0-25%)” and the hepatocyte CLint at 1 uM is more than 8.2 µL/min/1e6 cells.
With `c1cnc2cc(N3CCOCC3)nc(O[C@H]3CC[C@@H](Nc4ncc5sccc5n4)CC3)c2c1` [Compound 84, N-((1s,4s)-4-((7-Morpholino-1,6-naphthyridin-5-yl)oxy)cyclohexyl)thieno[3,2-d]pyrimidin-2-amine], in data set [1] (setting [5]), the EC50 lay in the range of 500 to 1000 nM. Moreover, the EC50 in data set [1] (setting [6]) lay within 500 to 1000 nM. In data set [2], the “Hepatocyte Stability (mouse) % rem. 120 min” value is “F (% remaining = 25-50%)” and the hepatocyte CLint at 1 uM is more than 8.2 µL/min/1e6 cells. Moreover, in data set [3], the “Hepatocyte Stability (human) % rem. 120 min” value was “F (% remaining = 25-50%)” and the hepatocyte CLint at 1 uM was more than 8.2 µL/min/1e6 cells.
Regarding `c1cnc2cc(N3CCOCC3)nc(O[C@H]3CC[C@@H](Nc4ncc5[nH]ccc5n4)CC3)c2c1` [Compound 85, N-((1s,4s)-4-((7-Morpholino-1,6-naphthyridin-5-yl)oxy)cyclohexyl)-5H-pyrrolo[3,2-d]pyrimidin-2-amine], in data set [1] (setting [5]), the EC50 is 10 to 500 nM. Moreover, in data set [1] (setting [6]), the EC50 was in the range of 10 to 500 nM. In data set [2], the “Hepatocyte Stability (mouse) % rem. 120 min” value was “E (% remaining = 0-25%)” and the hepatocyte CLint at 1 uM was more than 8.2 µL/min/1e6 cells. In addition, in data set [3], the “Hepatocyte Stability (human) % rem. 120 min” value is “E (% remaining = 0-25%)” and the hepatocyte CLint at 1 uM is more than 8.2 µL/min/1e6 cells.
`Cn1ccc2nc(N[C@H]3CC[C@@H](Oc4nc(N5CCOCC5)cc5ncccc45)CC3)ncc21` [Compound 87, 5-Methyl-N-((1s,4s)-4-((7-morpholino-1,6-naphthyridin-5-yl)oxy)cyclohexyl)-5H-pyrrolo[3,2-d]pyrimidin-2-amine]: the EC50 in data set [1] (setting [5]) and in data set [1] (setting [6]) was 10 to 500 nM in each case. The “Hepatocyte Stability (mouse) % rem. 120 min” value in data set [2] is “F (% remaining = 25-50%)”. For the same compound, the results for the hepatocyte CLint at 1 uM in data set [2] and in data set [3] were more than 8.2 µL/min/1e6 cells and less than 8.2 µL/min/1e6 cells, respectively. In data set [3], the “Hepatocyte Stability (human) % rem. 120 min” value was “G (% remaining = 50-75%)”.
As for `Cn1cnc2cnc(N[C@H]3CC[C@@H](Oc4nc(N5CCOCC5)cc5ncccc45)CC3)nc21` [Compound 88, 9-Methyl-N-((1s,4s)-4-((7-morpholino-1,6-naphthyridin-5-yl)oxy)cyclohexyl)-9H-purin-2-amine], the EC50 in data set [1] (setting [5]) was in the range of 10 to 500 nM. Also, the EC50 in data set [1] (setting [6]) fell in the range of 10 to 500 nM. In data set [2], the “Hepatocyte Stability (mouse) % rem. 120 min” value is recorded as “E (% remaining = 0-25%)” and the hepatocyte CLint at 1 uM is more than 8.2 µL/min/1e6 cells. Moreover, in data set [3], the “Hepatocyte Stability (human) % rem. 120 min” value is “E (% remaining = 0-25%)” and the hepatocyte CLint at 1 uM is more than 8.2 µL/min/1e6 cells.
Regarding `c1cnc2cc(N3CCOCC3)nc(O[C@H]3CC[C@@H](Nc4ccn5nccc5n4)CC3)c2c1` [Compound 89, N-((1s,4s)-4-((7-Morpholino-1,6-naphthyridin-5-yl)oxy)cyclohexyl)pyrazolo[1,5-a]pyrimidin-5-amine], the EC50 in data set [1] (setting [5]) lay in the range of 500 to 1000 nM. For the same compound, the EC50 in data set [1] (setting [6]) was in the range of 500 to 1000 nM. Also, in data set [2], the “Hepatocyte Stability (mouse) % rem. 120 min” value is “F (% remaining = 25-50%)” and the hepatocyte CLint at 1 uM was more than 8.2 µL/min/1e6 cells. Moreover, in data set [3], the “Hepatocyte Stability (human) % rem. 120 min” value is reported as “G (% remaining = 50-75%)” and the hepatocyte CLint at 1 uM was less than 8.2 µL/min/1e6 cells.
`O=C(N[C@H]1CC[C@@H](Oc2nc(N3CCOCC3)cc3ncccc23)CC1)c1ccncc1` [Compound 113, N-((1s,4s)-4-((7-morpholino-1,6-naphthyridin-5-yl)oxy)cyclohexyl)isonicotinamide]: the EC50 in data set [1] (setting [5]) fell in the range of 500 to 1000 nM. For the same compound, the EC50 in data set [1] (setting [6]) fell in the range of 500 to 1000 nM. Further, in data set [2], the “Hepatocyte Stability (mouse) % rem. 120 min” value is “G (% remaining = 50-75%)” and the hepatocyte CLint at 1 uM was less than 8.2 µL/min/1e6 cells. Also, in data set [3], the “Hepatocyte Stability (human) % rem. 120 min” value is recorded as “G (% remaining = 50-75%)” and the hepatocyte CLint at 1 uM was less than 8.2 µL/min/1e6 cells. In data set [4], the “Microsomal Stability (mouse) % rem. 60 min” value is given as “F (% remaining = 25-50%)” and the microsomal CLint (in general, the capacity of the preparation to metabolise the compound, expressed as a volume cleared per time) at 0.1 uM was more than 116 µL/min/mg.
With `O=C(N[C@H]1CC[C@@H](Oc2nc(N3CCOCC3)cc3ncccc23)CC1)c1ccnnc1` [Compound 121, N-((1s,4s)-4-((7-morpholino-1,6-naphthyridin-5-yl)oxy)cyclohexyl)pyridazine-4-carboxamide], the EC50 in data set [1] (setting [5]) was in the range of 1000 to 10000 nM. Further, the EC50 in data set [1] (setting [6]) is 1000 to 10000 nM. For the same compound, in data set [2], the “Hepatocyte Stability (mouse) % rem. 120 min” value is recorded as “G (% remaining = 50-75%)” and the hepatocyte CLint at 1 uM is less than 8.2 µL/min/1e6 cells. Besides, in data set [3], the “Hepatocyte Stability (human) % rem. 120 min” value was “G (% remaining = 50-75%)” and the hepatocyte CLint at 1 uM was less than 8.2 µL/min/1e6 cells. Moreover, in data set [4], the “Microsomal Stability (mouse) % rem. 60 min” value was “H (% remaining = 75-100%)” and the microsomal CLint at 0.1 uM is less than 116 µL/min/mg.
With `COc1cnc(N[C@H]2CC[C@@H](Oc3nc(N4CCOCC4)cc4ncc(NS(C)(=O)=O)cc34)CC2)nc1` [Compound 203, N-(5-(((1s,4s)-4-((5-methoxypyrimidin-2-yl)amino)cyclohexyl)oxy)-7-morpholino-1,6-naphthyridin-3-yl)methanesulfonamide], the EC50 in data set [1] (setting [5]) and in data set [1] (setting [6]) was 10 to 500 nM each time. Also, the “Hepatocyte Stability (mouse) % rem. 120 min” value in data set [2] is “F (% remaining = 25-50%)”. For the same compound, the hepatocyte CLint at 1 uM in data set [2] and in data set [3] was less than 8.2 µL/min/1e6 cells throughout. Further, the “Hepatocyte Stability (human) % rem. 120 min” value in data set [3] was “G (% remaining = 50-75%)”.
On to `CS(=O)(=O)Nc1cnc2cc(N3CCOCC3)nc(O[C@H]3CC[C@@H](NC(=O)c4ncco4)CC3)c2c1` [Compound 205, N-((1s,4s)-4-((3-(methylsulfonamido)-7-morpholino-1,6-naphthyridin-5-yl)oxy)cyclohexyl)oxazole-2-carboxamide], for which the EC50 in data set [1] (setting [5]) and in data set [1] (setting [6]) was 1000 to 10000 nM throughout. In addition, the “Hepatocyte Stability (mouse) % rem. 120 min” value in data set [2] is “H (% remaining = 75-100%)”. For the same compound, the hepatocyte CLint at 1 uM in data set [2] and in data set [3] was less than 8.2 µL/min/1e6 cells throughout. In addition, the “Hepatocyte Stability (human) % rem. 120 min” value in data set [3] is listed as “H (% remaining = 75-100%)”.
